Measured values taken from patent US9549557B2, “Insecticidal synergistic combinations of phthaldiamide derivatives and fipronil or ethiprole” (BAYER CROPSCIENCE AKTIENGESELLSCHAFT, priority 2013, dated 2017).

How the values were obtained:
[1] = tested on: mustard beetle larvae (Phaedon cochleariae); assay: Phaedon cochleariae - spray test; assay type: in vivo; conditions: 48 h
Experimental: (§1) The expected efficacy of a given combination of two compounds is calculated as follows (see Colby, S. R., “Calculating Synergistic and antagonistic Responses of Herbicide Combinations”, Weeds 15, pp. 20-22, 1967):
(§2) • X is the efficacy expressed in % mortality of the untreated control for test compound A at a concentration of m ppm respectively m g/ha, • Y is the efficacy expressed in % mortality of the untreated control for test compound B at a concentration of n ppm respectively n g/ha, • E is the efficacy expressed in % mortality of the untreated control using the mixture of A and B at m and n ppm respectively m and n g/ha, then is
(§3) If the observed insecticidal efficacy of the combination is higher than the one calculated as “E”, then the combination of the two compounds is more than additive, i.e., there is a synergistic effect.
Solvent: 78.0 parts by weight of acetone
• 1.5 parts by weight of dimethylformamide Emulsifier: 0.5 parts by weight of alkylaryl polyglycolether To produce a suitable preparation of active compound, 1 part by weight of active compound is mixed with the stated amount of solvent and emulsifier, and the concentrate is diluted with emulsifier-containing water to the desired concentration. To produce a suitable preparation of a spore suspension the spores are diluted with emulsifier-containing water to the desired concentration.
Chinese cabbage (Brassica pekinensis) leaf-disks are sprayed with a preparation of the active ingredient of the desired concentration. Once dry, the leaf disks are infested with mustard beetle larvae (Phaedon cochleariae).
After the specified period of time, mortality in % is determined. 100% means all beetle larvae have been killed and 0% means none of the beetle larvae have been killed. The mortality values determined thus are recalculated using the Colby-formula (see sheet 1).

[2] = tested on: larvae of the diamondback moth (Plutella xylostella); assay: Plutella xylostella - spray test; assay type: in vivo; conditions: 48 h, read-out: Efficacy in % after 2 d (mortality)
Experimental: as §1, §2, §3
Solvent: 7 parts by weight of dimethylformamide
Emulsifier: 2 parts by weight of alkylaryl polyglycolether […]
After the specified period of time, the mortality in % is determined. […] The mortality values determined thus are recalculated using the Colby-formula (see sheet 1).

[3] = read-out: Efficacy in % after 2 d (mortality)

CC[S+]([O-])c1c(C#N)nn(-c2c(Cl)cc(C(F)(F)F)cc2Cl)c1N (centres unmarked) [Ethiprole (II-2), ethiprole]
mortality at 1.2 g/ha [1, 3]: 33% | mortality at 0.8 g/ha ([1]; in Brassica rapa, foliar, read-out: Efficacy in % after 2 d (mortality)): 50%

Cc1cc(C(F)(C(F)(F)F)C(F)(F)F)ccc1NC(=O)c1cccc(Cl)c1C(=O)NC(C)(C)C#N [(I-5)]
mortality at 0.0625 ppm ([2]; 0.0625 ppm, cabbage leaves sprayed, after 2 d): 0% | mortality at 6 g/ha ([1]; 6 g ai/ha, after 2 d, Table A-2, read-out: Efficacy in % after 2 d (mortality)): 0% | mortality at 12 g/ha ([1]; 12 g ai/ha, after 2 d, Table A-2, read-out: Efficacy in % after 2 d (mortality)): 0% | mortality at 4 g/ha ([1]; foliar, 4 g ai/ha, Chinese cabbage leaf disks sprayed, after 2 d, Table A-1, read-out: Efficacy in % after 2 d (mortality)): 0%

N#Cc1nn(-c2c(Cl)cc(C(F)(F)F)cc2Cl)c(N)c1[S+]([O-])C(F)(F)F (centres unmarked) [Fipronil, fipronil]
mortality at 0.125 ppm ([2]; in Brassica oleracea): 45% | mortality at 0.3 g/ha [1, 3]: 0%
